Measurements: paper PMC7480105, “Wbox2: A clathrin terminal domain–derived peptide inhibitor of clathrin-mediated endocytosis” (The Journal of Cell Biology, 2020)
No end group written: not given here.

Experiments:
[1] = test system: TfnR uptake via CME in ARPE/HPV cells; experiment: TfnR uptake (in-cell ELISA) after peptide preincubation; assay type: cell-based; conditions: 60-min preincubation with peptide at 37°C, concentration curves, n = 4 replicates (Fig. 7 F), read-out: IC50 for inhibition of TfnR uptake
Method: Peptides encoding the TAT sequence (YGRKKRRQRRR) followed by 10 amino acid sequences covering the four reported binding sites on the clathrin terminal domain (Fig. 7 A) were synthesized by GenScript (Piscataway, NJ) with >95% purity. Peptides were dissolved in dH2O and further diluted in PBS4+ (1× PBS buffer plus 0.2% BSA, 1 mM CaCl2, 1 mM MgCl2, and 5 mM D-glucose) or cell culture medium (for imaging) when applied to cells. Peptide solutions were stored at −20°C.
Internalization of TfnR, CD44, CD59, and Biotin-Tfn was quantified by in-cell ELISA following established protocols ([Conner and Schmid, 2003]; [Srinivasan et al., 2018]). Cells were seeded in 96-well plates (Costar) at 60–70% confluence and grown overnight. Before the assay, cells were starved for 30 min in PBS4+ at 37°C or treated with peptides in PBS4+ at 37°C for the indicated times. After starvation, cells were moved to 4°C, and culture medium was replaced with cold PBS4+ containing 5 µg/ml HTR-D65 (anti-TfnR mAb; [Schmid and Smythe, 1991]), anti-human CD44 or anti-human CD59 (BD PharMingen) or 5 µg/ml Biotin-Tfn (Sigma-Aldrich). For single-round assays, the above reagents were kept with cells for 20 min at 4°C and then washed out before uptake assay. For multiround assays, the above reagents were kept with cells throughout the uptake process. In parallel, some cells were kept at 4°C for the measurement of surface-bound ligands and blank controls, and some were incubated in a 37°C water bath for the indicated times. Acid wash (0.2 M acetic acid and 0.2 M NaCl, pH 2.3) was used to remove surface-bound antibodies, followed by washing with cold PBS. All were fixed with 4% PFA (Electron Microscopy Sciences) in PBS for 30 min at 37°C. 0.1% Triton X-100 was added for 6.5 min to permeabilize cells, followed by addition of blocking buffer. HTR-D65–, CD44-, and CD59-treated cells were blocked with Q-PBS (PBS, 2% BSA, 0.1% lysine, and 0.01% saponin, pH 7.4), and Biotin-Tfn–treated cells were blocked with 2% casein. Surface-bound and internalized HTR-D65, CD44, and CD59 were probed with goat anti-mouse antibody conjugated with HRP (Sigma-Aldrich), and Biotin-Tfn was probed with Streptavidin-POD conjugate (Sigma-Aldrich). Color was developed using o-phenylenediamine dihydrochloride (OPD) solution (Sigma-Aldrich), and absorbance was read at 490 nm (Biotek Synergy H1 Hybrid Reader). Cell number variation among wells was accounted for by bicinchoninic acid assay reading at 562 nm.

cell viability = experiment: Cell viability, Cell Counting Kit 8 (CCK-8); assay type: cell-based; conditions: for cytotoxicity IC50 relative to concentration needed to inhibit CME: cytotoxicity vs CME inhibition
SNX9 = SNX9 (Homo sapiens, UniProt Q9Y5X1); experiment: Isothermal titration calorimetry with SNX9; assay type: binding; conditions: ITC, 20°C, 20 mM Hepes, 150 mM NaCl, 1 mM TCEP, pH 7.4; 1.8 mM Wbox2 injected into 50 µM SNX9; two nonsymmetric sites model; read-out: binding affinity KD1, first Wbox2 binding site on SNX9
From the text: GUSSI was further used to output the figures presented.

[2] = biological target: hinge + appendage domain of the AP2 β2 subunit (β2-HAD) (UniProt P63010); conditions: read-out: binding affinity KD to β2-HAD; ITC, 20°C, pH 7.4; 1.2 mM Wbox2 injected into 200 µM β2-HAD; A+B <–> AB model; binds a fraction of purified β2-HAD
Chain of hinge + appendage domain of the AP2 β2 subunit (β2-HAD) (P63010 2-937): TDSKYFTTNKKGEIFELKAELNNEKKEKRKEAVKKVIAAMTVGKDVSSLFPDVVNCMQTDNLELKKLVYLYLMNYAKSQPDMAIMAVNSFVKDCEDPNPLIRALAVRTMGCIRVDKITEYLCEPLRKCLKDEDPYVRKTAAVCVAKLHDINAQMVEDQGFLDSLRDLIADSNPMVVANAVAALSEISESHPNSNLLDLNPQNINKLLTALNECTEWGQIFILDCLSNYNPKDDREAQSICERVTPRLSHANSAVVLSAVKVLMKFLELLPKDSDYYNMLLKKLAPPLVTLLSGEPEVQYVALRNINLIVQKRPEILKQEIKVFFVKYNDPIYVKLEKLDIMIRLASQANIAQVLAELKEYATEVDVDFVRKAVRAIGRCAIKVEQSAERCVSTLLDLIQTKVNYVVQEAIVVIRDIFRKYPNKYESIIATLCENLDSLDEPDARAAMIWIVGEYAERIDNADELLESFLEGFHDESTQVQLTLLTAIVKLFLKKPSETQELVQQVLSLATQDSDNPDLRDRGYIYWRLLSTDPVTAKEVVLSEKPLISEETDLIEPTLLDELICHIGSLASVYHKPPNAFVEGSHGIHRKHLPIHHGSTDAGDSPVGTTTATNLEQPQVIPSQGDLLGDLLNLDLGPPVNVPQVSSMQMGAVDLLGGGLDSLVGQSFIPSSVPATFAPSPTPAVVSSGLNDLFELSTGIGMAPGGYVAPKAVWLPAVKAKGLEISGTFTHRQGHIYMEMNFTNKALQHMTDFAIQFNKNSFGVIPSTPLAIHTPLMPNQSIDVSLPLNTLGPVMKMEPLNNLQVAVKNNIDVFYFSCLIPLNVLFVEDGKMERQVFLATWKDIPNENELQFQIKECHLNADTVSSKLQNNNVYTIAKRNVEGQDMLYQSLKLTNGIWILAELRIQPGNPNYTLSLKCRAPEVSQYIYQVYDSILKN
Method: Binding of TAT, Wbox2_mutant, and Wbox2 to SNX9 and β2-HAD was investigated by ITC using a MicroCal iTC200 (GE Healthcare Life Sciences). Measurements were performed at 20°C in reaction buffer: 20 mM Hepes, 150 mM NaCl, and 1 mM TCEP, pH 7.4. Protein and peptide concentrations were determined by absorbance at 280 and 205 nm, respectively. The peptides were injected from a syringe in 21 steps up to a molar excess over the protein concentration. Titration curves were executed with NITPIC and fitted with SEDPHAT.

Chain of SNX9 (Q9Y5X1 whole entry, species assumed): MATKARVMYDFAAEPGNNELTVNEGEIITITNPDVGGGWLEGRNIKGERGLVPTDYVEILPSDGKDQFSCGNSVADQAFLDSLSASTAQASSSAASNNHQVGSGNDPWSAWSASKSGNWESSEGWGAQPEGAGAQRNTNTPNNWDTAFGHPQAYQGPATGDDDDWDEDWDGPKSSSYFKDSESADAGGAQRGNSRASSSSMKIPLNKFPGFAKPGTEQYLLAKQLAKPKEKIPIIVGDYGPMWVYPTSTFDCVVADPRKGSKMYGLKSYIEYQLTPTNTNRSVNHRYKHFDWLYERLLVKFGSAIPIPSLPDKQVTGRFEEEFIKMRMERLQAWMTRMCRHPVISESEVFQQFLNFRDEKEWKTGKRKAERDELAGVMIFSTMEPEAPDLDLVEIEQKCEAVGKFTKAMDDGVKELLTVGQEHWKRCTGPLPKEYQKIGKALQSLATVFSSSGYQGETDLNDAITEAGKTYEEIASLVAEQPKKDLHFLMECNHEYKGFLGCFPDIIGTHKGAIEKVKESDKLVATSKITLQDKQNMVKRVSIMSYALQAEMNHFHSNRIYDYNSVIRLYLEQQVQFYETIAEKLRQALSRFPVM

Sequence | IC50 [1] [µM] | IC50 for cytotoxicity (cell viability; CCK-8, n = 4 replicates (Fig. S5)) [µM] | effect on cell viability (cell viability; concentrations ≤30 µM, CCK-8, n = 4 replicates (Fig. S5)) | cytotoxicity IC50 relative to concentration needed to inhibit CME (cell viability) [fold] | cytotoxicity IC50 relative to concentration needed to inhibit CME (cell viability; listed as CMEpi) | Kd (SNX9) [µM] | Kd [2] [µM]
YGRKKRRQRRRGFSCQIIGIS [Wbox2] | ~3 | > 40 | no effect | 10 | ~ 10 fold | 4 | 37.5
YGRKKRRQRRRLAGCQIINYR [Wbox1] | ~3 |  |  |  |  |  | 
YGRKKRRQRRRKAGKTLQIFN [Cbox1] | ~60 |  |  |  |  |  | 
